The text below walks through data of patent US20170042870A1, “TARGETED NANOPARTICLE COMPOSITIONS AND METHODS OF THEIR USE TO TREAT OBESITY” (priority 2014, published 2017).

A short description of assay [1]: Body weight gain and food intake in DIO mice. In kind it is in vivo, C57Bl/6 mice. Conditions: 25 days post treatment, vs non-treated obese mice. The text has this: All animal studies were approved by the Committee on Animal Care, Massachusetts Institute of Technology. 6-week-old male wild-type mice and 10-week-old male diet-induced obese mice, of the C57Bl/6 strain, were used in current studies. High-fat-diet (TD-06414, 60/Fat) was purchased from Harlan Laboratories, and was used to induce and maintain obesity in C57Bl/6 mice.
Standard diet fed or high-fat-diet fed C57Bl/6 mice were intravenous injected with either NP constructs or free drug (rosiglitazone or 16,16-dimethyl-PGE2) at the drug dose of 80 mg/kg, every second day. Free Rosi was dissolved in DMSO followed by dilution in saline.
The high-fat-diet induced obese model was used to assess the possible impact of the two peptide-NP-Rosi on body weight, tissue histology, and molecular expression profiles. There was no difference in body weight gain between the mice treated with Rosi (in solution and non-targeted NP forms) and non-treated obese mice (FIGS. 5A and B).

The test system of assay [2] is stromal vascular fragments (SVF) from WAT. Nature of the assay: Proliferation and cellular toxicity of SVF. In kind it is cell-based, mice. As to conditions: in vitro. On the procedure: (§1) WAT was dissected and extensively washed with Hank's Balanced Salt Solution (HBSS, Invitrogen). Tissues were cut into small pieces using a surgical scissor, and digested with 0.1% collagenase A in HBSS and 1% bovine serum albumin (SigmaAldrich) for 30 minutes at 37 C with gentle shaking. The digested tissues were suspended in Dulbecco's modified Eagle's medium containing 10% fetal bovine serum, and then passed through a 100 μm cell strainer (BD Falcon) to remove debris. Subsequently, cell suspension was centrifuged for 10 minutes at 300×g. 3. After removal of the floating cell layer and supernatant, the cell pellet was resuspended in 10 ml of HBSS, and then filtered through a 40 μm cell strainer (BD Falcon). The filtered cell suspension was layered on top of a Histopaque-1077 solution (10 ml) in a 50 ml tube, and then centrifuged at 400 g for 30 min at room temperature. The SVF cell layer at the gradient interface was collected and washed with HBSS. Cell counts and viability assessment were performed. Primary SVF or sorted cells were maintained in DMEM plus 10% FCS, 1% penicillin/streptomycin, and 10 ng/ml murine bFGF (R&D Systems).
(§2) Angiogenic vessels usually express high levels of integrins, particularly αv and β3 subunits. […]

In the next assay the test system is CD31+ SVF. The experiment in a line: Integrinαv antibody staining of CD31-sorted SVF. Type of assay: cell-based, mice. Conditions: in vitro. On the procedure:
Angiogenic vessels usually express high levels of integrins, particularly αv and β3 subunits. To evaluate whether Rosi-loaded NPs can effectively induce expression of integrins on vascular cells, the stromal vascular fragments (SVF) were isolated from WAT, followed by treatment with Rosi (1 μM) in either solution or non-targeted NP form. CD31+ SVF was sorted and stained with Integrinαv antibody, Isolectin B4 and DAPI. C57Bl/6 mice were treated with Rosi, NP-Rosi, iRGD-NP-Rosi or P3-NP-Rosi for two weeks (n=3). IngWAT, epiWAT and livers were dissected and representative samples were imaged under IVIS imaging system. Inguinal WAT and epididymal WAT were dissected and representative samples were photographed.
It should also be noted that no evidence of cellular toxicity was observed under all the conditions. SVFs were sorted with an endothelial marker CD31, and stained cells with an Integrinαv antibody.

Assay [3] has as its system stromal vascular fragments (SVF) from WAT. Nature of the assay: qRT-PCR of integrin expression in SVF treated in vitro. Conditions: Rosi 1 μM. Type of assay: cell-based, mice. On the procedure: as §1, §2
For orientation: Real-time PCR tracks product formation cycle by cycle.

Assay [4] can be described thus: Serological parameters in fasted DIO mice. In kind it is in vivo, C57Bl/6 mice. Conditions: 25 days. On the procedure:
Serum levels of free fatty acid, glucose, triglycerides and cholesterol contents from fasted obese mice were determined by standard kits from Cayman Chemical Co. (Ann Arbor, Mich.). Serum insulin from fasted obese mice was determined by ELISA method according to manufacturer's protocol (Millipore, Billerica, Mass.).
Serum was collected from DIO mice that were fasted for five hours following 25 days of treatments, and analyzed for levels of serological parameters.

Take `CN(CCOc1ccc(CC2SC(=O)NC2=O)cc1)c1ccccn1` (racemic) [Rosi, (RS)-5-[4-(2-[methyl(pyridin-2-yl)amino]ethoxy)benzyl]thiazolidine-2,4-dione]: in assay [1], the body weight gain result is on record as “no difference”. Besides, the “proliferation of SVF” value in assay [2] was “stimulated the proliferation of SVF”. Besides, in the assay with CD31+ SVF, the “Integrinαv on CD31-sorted SVF (antibody staining)” value is given as “upregulated”. Moreover, the “expression level of Integrinαv on SVF (qRT-PCR)” value in assay [3] is “elevated the expression levels of Integrinαv”. Further, the “reduction of serum insulin” value in assay [4] is 3 folds.
